# Numbered stars: 1 amine (or outer) side, 2 acyl side, 3 side chain; on linkers, the order of the positions; unused ones are H or OH. Square brackets hold non-standard residues; d marks the D form. Peptide text beside a SMILES is read from it. * marks the point of attachment. Hexanoyl(5S-NH,4S-OH,6-Ph) = O=C(CC[C@H](O)[C@H](Cc1ccccc1)N[*:1])[*:2]; X3 = O=C([C@H](Cc1ccccc1)C[C@H](O)[C@H](Cc1ccccc1)N[*:1])[*:2]; X4 = CC(C)C[C@H](C[C@H](O)[C@H](Cc1ccccc1)N[*:1])C(=O)[*:2]; X1 = CCC[C@H](C[C@H](O)[C@H](Cc1ccccc1)N[*:1])C(=O)[*:2]; X2 = C[C@H](C[C@H](O)[C@H](Cc1ccccc1)N[*:1])C(=O)[*:2]; Cbz = O=C(OCc1ccccc1)*
# Target: Beta-secretase 1 (Homo sapiens, UniProt P56817)
# Sequence (P56817 whole entry): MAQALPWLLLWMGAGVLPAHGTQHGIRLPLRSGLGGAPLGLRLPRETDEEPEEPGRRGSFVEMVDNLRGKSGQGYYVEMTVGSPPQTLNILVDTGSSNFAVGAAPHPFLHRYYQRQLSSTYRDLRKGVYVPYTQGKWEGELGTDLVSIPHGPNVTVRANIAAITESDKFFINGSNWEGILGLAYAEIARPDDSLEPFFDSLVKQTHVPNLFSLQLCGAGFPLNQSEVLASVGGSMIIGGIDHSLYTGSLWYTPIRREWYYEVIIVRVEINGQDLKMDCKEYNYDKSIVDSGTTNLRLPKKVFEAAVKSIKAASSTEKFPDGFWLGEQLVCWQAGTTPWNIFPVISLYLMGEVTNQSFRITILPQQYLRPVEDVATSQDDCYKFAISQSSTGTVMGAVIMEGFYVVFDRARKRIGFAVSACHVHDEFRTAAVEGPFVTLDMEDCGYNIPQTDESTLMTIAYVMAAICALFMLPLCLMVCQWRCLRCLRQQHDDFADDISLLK
# Assay: Binding affinity towards Beta-secretase determined using continuum electrostatics solvation
row,Ki,Structure (SMILES)
1,9.4 nM,CC(C)C[C@H](NC(=O)C(CS(C)(=O)=O)NC(=O)[C@@H](NC(=O)OC(C)(C)C)C(C)C)C(O)CC(C)C(=O)N[C@H](C(=O)NCc1ccccc1)C(C)C (some centres undefined)
2,22400 nM,CC(C)C[C@H](NC(=O)[C@@H](NC(=O)OC(C)(C)C)C(N)=O)C(O)CC(C)C(=O)N[C@@H](C)C(=O)NCc1ccccc1 (some centres undefined)
3,58.8 nM,CSCCC(NC(=O)OC(C)(C)C)C(=O)N[C@@H](CC(C)C)C(O)CC(C)C(=O)N[C@H](C(=O)NCc1ccccc1)C(C)C (some centres undefined)
4,5.9 nM,CC(C)C[C@H](NC(=O)C(NC(=O)[C@@H](NC(=O)OC(C)(C)C)C(C)C)C(N)=O)C(O)CC(C)C(=O)N[C@H](C(=O)NCc1ccccc1)C(C)C (some centres undefined)
5,50.1 nM,CSCC(NC(=O)[C@@H](NC(=O)OC(C)(C)C)C(C)C)C(=O)N[C@@H](CC(C)C)C(O)CC(C)C(=O)N[C@H](C(=O)NCc1ccccc1)C(C)C (some centres undefined)
6,1130 nM,CC(C)C[C@H](NC(=O)[C@H](CS(C)(=O)=O)NC(=O)OC(C)(C)C)C(O)CC(C)C(=O)N[C@H](C(=O)NCc1ccccc1)C(C)C (some centres undefined)
7,0.3 nM,CC(C)C[C@H](NC(=O)[C@@H](N)CCC(=O)O)C(=O)N[C@@H](CC(=O)O)C(=O)N[C@@H](CC(C)C)C(=O)C(O)CN[C@@H](C)C(=O)N[C@H](C(=O)N[C@@H](CCC(=O)O)C(=O)N[C@@H](Cc1ccccc1)C(=O)O)C(C)C (some centres undefined)
8,2.5 nM,CSCCC(NC(=O)[C@@H](NC(=O)OC(C)(C)C)C(C)C)C(=O)N[C@@H](CC(C)C)C(O)CC(C)C(=O)N[C@H](C(=O)NCc1ccccc1)C(C)C (some centres undefined)
9,3130 nM,CC(C)C[C@H](NC(=O)[C@@H](NC(=O)OC(C)(C)C)C(N)=O)C(O)CC(C)C(=O)N[C@H](C(=O)NCc1ccccc1)C(C)C (some centres undefined)
10,61.4 nM,CC(C)C[C@H](NC(=O)C(NC(=O)[C@@H](NC(=O)OC(C)(C)C)C(C)C)C(N)=O)C(O)CC(C)C(=O)N[C@@H](C)C(=O)NCc1ccccc1 (some centres undefined)

# Target: Human immunodeficiency virus type 1 protease (Human immunodeficiency virus 1, UniProt Q72874)
# Assay: Binding affinity towards human immunodeficiency virus type 1 protease determined using continuum electrostatics solvation
row,Structure (SMILES),Ki
1,"COC(=O)[C@@H](NC(=O)[C@@H](NC(=O)CC[C@H](O)[C@H](Cc1ccccc1)NC(=O)[C@H](C)NC(=O)[C@H](C)NC(=O)OCc1ccccc1)C(C)C)C(C)C (Cbz-AA[Hexanoyl(5S-NH,4S-OH,6-Ph)]VV-OMe)",44 nM
2,COC(=O)C(NC(=O)C(NC(=O)CC[C@H](O)C(Cc1ccccc1)NC(=O)C(C)NC(=O)OCc1ccccc1)C(C)C)C(C)C (some centres undefined),118 nM
3,CC(C)C(NC(=O)CC[C@H](O)C(Cc1ccccc1)NC(=O)OC(C)(C)C)C(N)=O (some centres undefined),6500 nM
4,CC(C)C(NC(=O)[C@H](C)C[C@H](O)C(Cc1ccccc1)NC(=O)OC(C)(C)C)C(N)=O (some centres undefined),260 nM
5,CCC[C@H](C[C@H](O)C(Cc1ccccc1)NC(=O)C(C)NC(=O)OCc1ccccc1)C(=O)NC(C(N)=O)C(C)C (some centres undefined),20 nM
6,CCC[C@H](C[C@H](O)[C@H](Cc1ccccc1)NC(=O)[C@H](C)NC(=O)[C@H](C)N)C(=O)N[C@H](C(=O)N[C@H](C(=O)OC)C(C)C)C(C)C (H-AA[X1]VV-OMe),1.2 nM
7,CC(C)C(NC(=O)[C@H](Cc1ccccc1)C[C@H](O)C(Cc1ccccc1)NC(=O)OC(C)(C)C)C(N)=O (some centres undefined),1.4 nM
8,COC(=O)C(NC(=O)C(NC(=O)[C@H](CC(C)C)C[C@H](O)C(Cc1ccccc1)NC(=O)C(C)NC(=O)OCc1ccccc1)C(C)C)C(C)C (some centres undefined),0.9 nM
9,CC(C)C[C@H](C[C@H](O)C(Cc1ccccc1)NC(=O)C(C)NC(=O)OCc1ccccc1)C(=O)NC(C(N)=O)C(C)C (some centres undefined),3.9 nM
10,COC(=O)[C@@H](NC(=O)[C@@H](NC(=O)[C@H](CC(C)C)C[C@H](O)[C@H](Cc1ccccc1)NC(=O)[C@H](C)NC(=O)[C@H](C)N)C(C)C)C(C)C (H-AA[X4]VV-OMe),0.6 nM
11,COC(=O)[C@@H](NC(=O)[C@@H](NC(=O)[C@H](CC(C)C)C[C@H](O)[C@H](Cc1ccccc1)NC(=O)[C@H](C)NC(=O)[C@H](C)NC(=O)OCc1ccccc1)C(C)C)C(C)C (Cbz-AA[X4]VV-OMe),0.8 nM
12,CC(NC(=O)OCc1ccccc1)C(=O)NC(Cc1ccccc1)[C@@H](O)C[C@@H](C)C(=O)NC(C(N)=O)C(C)C (some centres undefined),50 nM
13,COC(=O)[C@@H](NC(=O)[C@@H](NC(=O)[C@H](C)C[C@H](O)[C@H](Cc1ccccc1)NC(=O)[C@H](C)NC(=O)[C@H](C)NC(=O)OCc1ccccc1)C(C)C)C(C)C (Cbz-AA[X2]VV-OMe),0.6 nM
14,COC(=O)C(NC(=O)C(NC(=O)[C@H](C)C[C@H](O)C(Cc1ccccc1)NC(=O)C(C)NC(=O)OCc1ccccc1)C(C)C)C(C)C (some centres undefined),1.6 nM
15,"COC(=O)[C@@H](NC(=O)[C@@H](NC(=O)CC[C@H](O)[C@H](Cc1ccccc1)NC(=O)[C@H](C)NC(=O)[C@H](C)N)C(C)C)C(C)C (H-AA[Hexanoyl(5S-NH,4S-OH,6-Ph)]VV-OMe)",4 nM
16,CC(NC(=O)OCc1ccccc1)C(=O)NC(Cc1ccccc1)[C@@H](O)CCC(=O)NC(C(N)=O)C(C)C (some centres undefined),2500 nM
17,CCC[C@H](C[C@H](O)[C@H](Cc1ccccc1)NC(=O)[C@H](C)NC(=O)[C@H](C)NC(=O)OCc1ccccc1)C(=O)N[C@H](C(=O)N[C@H](C(=O)OC)C(C)C)C(C)C (Cbz-AA[X1]VV-OMe),0.4 nM
18,CC(C)C[C@H](C[C@H](O)C(Cc1ccccc1)NC(=O)OC(C)(C)C)C(=O)NC(C(N)=O)C(C)C (some centres undefined),23 nM
19,COC(=O)[C@@H](NC(=O)[C@@H](NC(=O)[C@H](Cc1ccccc1)C[C@H](O)[C@H](Cc1ccccc1)NC(=O)[C@H](C)NC(=O)[C@H](C)NC(=O)OCc1ccccc1)C(C)C)C(C)C (Cbz-AA[X3]VV-OMe),0.4 nM
20,COC(=O)[C@@H](NC(=O)[C@@H](NC(=O)[C@H](C)C[C@H](O)[C@H](Cc1ccccc1)NC(=O)[C@H](C)NC(=O)[C@H](C)N)C(C)C)C(C)C (H-AA[X2]VV-OMe),3 nM
21,CCC[C@H](C[C@H](O)C(Cc1ccccc1)NC(=O)C(C)NC(=O)OCc1ccccc1)C(=O)NC(C(=O)NC(C(=O)OC)C(C)C)C(C)C (some centres undefined),0.6 nM
22,CCC[C@H](C[C@H](O)C(Cc1ccccc1)NC(=O)OC(C)(C)C)C(=O)NC(C(N)=O)C(C)C (some centres undefined),50 nM
23,COC(=O)C(NC(=O)C(NC(=O)[C@H](Cc1ccccc1)C[C@H](O)C(Cc1ccccc1)NC(=O)C(C)NC(=O)OCc1ccccc1)C(C)C)C(C)C (some centres undefined),0.6 nM
24,CC(NC(=O)OCc1ccccc1)C(=O)NC(Cc1ccccc1)[C@@H](O)C[C@@H](Cc1ccccc1)C(=O)NC(C(N)=O)C(C)C (some centres undefined),0.6 nM
